Laboratory results: US11136296B2, “Substituted N-arylethyl-2-arylquinoline-4-carboxamides and use thereof” (Bayer Aktiengesellschaft, priority 2017, dated 2021)

How the values were obtained:
[1] = system: fluprostenol-induced mechanical sensitivity; test: Effects of FP antagonists on mechanical sensitivity (von Frey test, fluprostenol-induced mechanical allodynia); format: in vivo, mouse; conditions: for 50% Paw Response Threshold, mean: Ex. 153 90 mg/kg PO, male ND4 mice; for effect on 50% Paw Response Thresholds compared to vehicle-treated animals: group treated with […] fluprostenol, oral 90 mg/kg
Method: B-24. Effects of FP Antagonists on Mechanical Sensitivity (Peripheral, Mouse)
Mechanical allodynia was examined using the von Frey test on the injected and uninjected rear paws several times after the injection.
Mechanical allodynia was measured with […] (Stölting©; Wood Dale, Ill., USA) having different stiffness (0.04; 0.07; 0.16; 0.4; 1.0. 4.0 and 8.0 g) by the up-down method (Chaplan et al., J. Neurosci. Meth. 1994, 53, 56-63). Intact male ND4 mice (30 g, 10 animals per group) were placed in individual acrylic chambers on a metal grid surface, and were allowed to get used to their environment for at least 15 minutes before the testing. Each filament was pressed with sufficient force at right angles to the underside of the paw, in order to cause slight bending against the paw, and was held for about 6 seconds or until a positive response was registered (paw quickly withdrawn). The testing was commenced with the 0.4 g filament. If the paw was not withdrawn, the next strongest stimulus was used. In the case that the paw was withdrawn, the next weakest stimulus was used. This process was repeated until up to 4 responses had been obtained after the initial change in response (no response after positive response or positive response after no response). […] The 50% paw response threshold was calculated using the following formula:
[formula] • Xf=value (in logarithmic units) of the last von Frey filament used • k=table value for the pattern of positive/negative responses (see Chaplan et al., J. Neurosci. Meth. 1994, 53, 56-63, Annex 1, page 62) • δ=average difference (in logarithmic units) between the stimuli
The mean and […] of the mean (SEM) was determined for each paw for each treatment group at each time point.
In order to assess the analgesic effect of an FP antagonist on fluprostenol-induced mechanical sensitivity, the test substance from Ex. 153 (90 mg/kg) was administered 2 hours before and 8 and 22 hours after the injection of fluprostenol. Ipsilateral and contralateral 50% paw response thresholds were examined prior to the administration of fluprostenol and 0.5, 2, 6 and 24 h after the administration.

FP receptor = FP receptor (Homo sapiens (Human), UniProt P43088); test: In vitro test of inhibition of human FP receptor activity (PGF2α-induced calcium flux in FP-expressing CHEM1 cells); format: cell-based; conditions: PGF2α-induced (2 nM) calcium flux in FP-expressing CHEM1 cells; some as mean values from multiple determinations
FP receptor, sequence (P43088 whole entry): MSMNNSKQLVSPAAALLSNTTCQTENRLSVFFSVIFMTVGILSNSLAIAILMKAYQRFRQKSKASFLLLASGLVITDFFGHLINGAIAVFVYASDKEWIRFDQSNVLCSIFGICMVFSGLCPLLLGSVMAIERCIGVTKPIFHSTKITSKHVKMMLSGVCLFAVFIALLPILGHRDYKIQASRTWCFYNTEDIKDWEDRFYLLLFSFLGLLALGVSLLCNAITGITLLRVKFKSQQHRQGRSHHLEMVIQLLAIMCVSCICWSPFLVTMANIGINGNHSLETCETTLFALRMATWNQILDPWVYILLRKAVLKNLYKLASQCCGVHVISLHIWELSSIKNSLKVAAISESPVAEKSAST
Source text: Table 1 below lists the IC50 values from this assay for individual working examples of the invention (some as mean values from multiple independent individual determinations): […]

Compound	50% Paw Response Threshold, mean ([1]; Group 2: fluprostenol ~[…] IPL, 0.5 h)	50% Paw Response Threshold, mean ([1]; Group 2: fluprostenol ~[…] IPL, 2 h)	50% Paw Response Threshold, mean ([1]; Group 2: fluprostenol ~[…] IPL, 6 h)	50% Paw Response Threshold, mean ([1]; Group 2: fluprostenol ~[…] IPL, 24 h)	50% Paw Response Threshold, mean ([1]; Group 2: fluprostenol ~[…] IPL, BL (baseline))	50% Paw Response Threshold, mean ([1]; Group 4: fluprostenol ~[…] IPL, 0.5 h)	50% Paw Response Threshold, mean ([1]; Group 4: fluprostenol ~[…] IPL, 2 h)	50% Paw Response Threshold, mean ([1]; Group 4: fluprostenol ~[…] IPL, 6 h)	50% Paw Response Threshold, mean ([1]; Group 4: fluprostenol ~[…] IPL, 24 h)	50% Paw Response Threshold, mean ([1]; Group 4: fluprostenol ~[…] IPL, BL (baseline))	effect on 50% Paw Response Thresholds compared to vehicle-treated animals ([1]; 0.5 hours after the fluprostenol injection)	effect on 50% Paw Response Thresholds compared to vehicle-treated animals ([1]; 24 hours after the fluprostenol injection)	IC50 (FP receptor)
Cc1c(-c2ccccc2)nc2ccc(Br)cc2c1C(=O)NCC(CCC(=O)O)c1ccccc1Cl (single isomer, unassigned; (+)) [Ex. 153, (+)-5-{[(6-Bromo-3-methyl-2-phenylquinolin-4-yl)carbonyl]amino}-4-(2-chlorophenyl)pentanoic Acid]	2.65 g	2.403 g	1.89 g	3.245 g	4.421 g	0.728 g	0.716 g	1.57 g	1.683 g	4.215 g	increased the “50% Paw Response Thresholds” 0.5 hours after the fluprostenol injection significantly	increased the “50% Paw Response Thresholds” 24 hours after the fluprostenol injection significantly	9 nM
COc1cccc(F)c1C(C)(CNC(=O)c1c(C)c(-c2ccccc2)nc2ccc(Br)cc12)CC(=O)O (single isomer, unassigned; (+)) [Example 143, (+)-4-{[(6-Bromo-3-methyl-2-phenylquinolin-4-yl)carbonyl]amino}-3-(2-fluoro-6-methoxyphenyl)-3-methylbutanoic Acid]	–	–	–	–	–	–	–	–	–	–	–	–	6.8 nM
Cc1c(-c2ccccc2)nc2ccc(Br)cc2c1C(=O)NCC(CC(=O)O)c1ccc(Cl)cc1 (single isomer, unassigned; (+)) [Example 67, (+)-4-{[(6-Bromo-3-methyl-2-phenylquinolin-4-yl)carbonyl]amino}-3-(4-chlorophenyl)butanoic Acid]	–	–	–	–	–	–	–	–	–	–	–	–	370 nM
